Experimental findings from PMC5215849 (Antiviral research, 2016) are described below.

Data set [1] has as its system ZIKV PRVABC-59. The experiment in a line: CPE reduction assay, ZIKV Puerto Rican PRVABC-59. The settings on record: Zika virus. It counts as cell-based.
Data set [2] concerns ZIKV P 6-740. Description: CPE reduction assay, ZIKV Malaysian P 6-740. It counts as cell-based. Conditions: Zika virus.
For data set [3], the system named is ZIKV MR-766. Description: CPE reduction assay, ZIKV Ugandan MR-766. Type of data set: cell-based. The settings on record: Zika virus.
The subject of data set [4] is ZIKV (P 6-740). It counts as in vivo, AG129 mice. The settings on record: for Mean weight change from days 7 to 13: vehicle −3.1 ± 2.4 g, p<0.001.
The subject of data set [5] is ZIKV (P 6-740). Description: Re-challenge of surviving BCX4430-treated AG129 mice with ZIKV. Conditions: BCX4430-treated mice (300 mg/kg/d) that survived initial ZIKV challenge. Type of data set: in vivo.
Data set [6] has as its system ZIKV (P 6-740). Type of data set: in vivo, AG129 mice.
Data set [7] relates to ZIKV MR-766. Description: Virus yield reduction. The settings on record: Zika virus.
The next data set concerns ZIKV Malaysian P 6-740. The experiment in a line: Virus yield reduction.
The test system of data set [8] is ZIKV P 6-740. The experiment in a line: Virus yield reduction. Conditions: Zika virus.
The test system of data set [9] is ZIKV PRVABC-59. The experiment in a line: Virus yield reduction. The settings on record: Zika virus.
In another data set the test system is ZIKV. The experiment in a line: Virus yield reduction concentration-response. The settings on record: single test. It counts as cell-based, Zika virus.
The mark [10] stands for this setting: Huh-7, read-out: CPE red. assay EC50.
The mark [11] stands for this setting: RD, read-out: CPE red. assay EC50.
The mark [12] stands for this setting: Vero 76, read-out: CPE red. assay EC50.
Where [13] appears, read: 300 mg/kg/d bid for 7 days beginning 3 dpi.
Setting [14] is: Huh-7, read-out: VYR assay EC90.
Where [15] appears, read: Vero 76, read-out: VYR assay EC90.

Values after ≈ are worked out from the molar mass of the structure shown. Where two headings read alike, the source gives them in different places.

In the case of `Nc1ncnc2c([C@@H]3N[C@H](CO)[C@@H](O)[C@H]3O)c[nH]c12` [BCX4430], the EC50 (as a rule, the concentration needed to bring the measured effect to its halfway point) is 4.7 ± 0.6 µg/mL (≈ 17.7 µM) in the data set on ZIKV PRVABC-59 [1] (setting [10]); 4.7 ± 2.2 µg/mL (≈ 17.7 µM) with ZIKV PRVABC-59 [1] (setting [11]); 3.8 ± 2.5 µg/mL (≈ 14.3 µM) in the data set with ZIKV PRVABC-59 [1] (setting [12]); 5.5 ± 0.1 µg/mL (≈ 20.7 µM) in the data set with ZIKV P 6-740 [2] (setting [10]); 11.5 ± 4.4 µg/mL (≈ 43.4 µM) in the data set on ZIKV P 6-740 [2] (setting [12]); 5.7 ± 0.9 µg/mL (≈ 21.5 µM) in the data set with ZIKV MR-766 [3] (setting [10]). Moreover, the values for the EC50 in the data set with ZIKV MR-766 [3] (setting [11]) and with ZIKV MR-766 [3] (setting [12]) were 4.4 ± 1.3 µg/mL (≈ 16.6 µM) and 11.7 ± 4.7 µg/mL (≈ 44.1 µM), respectively. The results for the “Mean weight change from days 7 to 13” value in the data set on ZIKV (P 6-740) [4] (150 mg/kg/d) and in the data set on ZIKV (P 6-740) [4] (300 mg/kg/d) were -0.3 ± 0.8 g and “+0.2 ± 0.5 g”, respectively. Moreover, the “Weight between 0 and 19 dpi” value in the data set with ZIKV (P 6-740) [4] (300 mg/kg/d, similar to sham infected animals treated with the same dose) is given as “did not decline substantially”. The “Viral RNA level in pooled serum on day 5 (qRT-PCR)” value in the data set with ZIKV (P 6-740) [4] (either dose of BCX4430 (300 or 150 mg/kg/d)) is reported as “significant reduction in viremia”. Moreover, the “Neutralizing antibody titers in serum just prior to re-challenge” value in the data set on ZIKV (P 6-740) [5] is on record as 4-5 log10 PRNT50. Besides, the “Protection from weight loss between 7 and 13 dpi” value in the data set on ZIKV (P 6-740) [6] (300 mg/kg/d beginning 1, 3 or 5 dpi, vs vehicle p<0.001) is reported as “Significant protection from weight loss”. Further, the “Viral RNA levels in serum on 5 dpi” value with ZIKV (P 6-740) [6] (300 mg/kg/d beginning 1 or 3 dpi) was “not significantly decreased”. The Median survival is given as over 28 days in the data set with ZIKV (P 6-740) [6] (300 mg/kg/d bid for 7 days beginning 1 dpi), 19.5 days in the data set on ZIKV (P 6-740) [6] (setting [13]), 18 days in the data set on ZIKV (P 6-740) [6] (300 mg/kg/d bid for 7 days beginning 5 dpi) and 17 days in the data set with ZIKV (P 6-740) [6] (300 mg/kg/d bid for 7 days beginning 7 dpi). The Survivors entry with ZIKV (P 6-740) [6] (setting [13]) is on record as “only a single mouse survived”. The EC90 – broadly, the concentration at which the effect reaches the 90% level – in the data set on ZIKV MR-766 [7] (setting [14]) came to 6.4 µg/mL (≈ 24.1 µM); in the data set with ZIKV MR-766 [7] (RD, read-out: VYR assay EC90), 5.4 ± 1.1 µg/mL (≈ 20.4 µM); with ZIKV MR-766 [7] (setting [15]), 8.7 µg/mL (≈ 32.8 µM); in the data set on ZIKV P 6-740 [8] (setting [14]), 4.9 ± 0.9 µg/mL (≈ 18.5 µM); in the data set on ZIKV P 6-740 [8] (setting [15]) it was 13.8 ± 3.7 µg/mL (≈ 52 µM); in the data set on ZIKV PRVABC-59 [9] (setting [14]), 6.7 ± 1.2 µg/mL (≈ 25.3 µM). In addition, the EC90 came out at 10 ± 2.2 µg/mL (≈ 37.7 µM) in the data set with ZIKV PRVABC-59 [9] (RD, read-out: VYR assay EC90) and 18.2 ± 2.7 µg/mL (≈ 68.6 µM) in the data set on ZIKV PRVABC-59 [9] (setting [15]). Besides, the selectivity ratio came out at 7.3 in the data set with ZIKV Malaysian P 6-740 (African green monkey) and 20.5 in the data set on ZIKV Malaysian P 6-740 (human).
With `NC(=O)c1ncn([C@@H]2O[C@H](CO)[C@@H](O)[C@H]2O)n1` [Ribavirin, reference compound], the EC50 in the data set on ZIKV PRVABC-59 [1] (setting [10]) came out at 3.8 ± 1.6 µg/mL (≈ 15.6 µM); in the data set on ZIKV PRVABC-59 [1] (setting [11]), 10 ± 6 µg/mL (≈ 40.9 µM); in the data set on ZIKV PRVABC-59 [1] (setting [12]), 23 ± 16.8 µg/mL (≈ 94.2 µM); in the data set on ZIKV P 6-740 [2] (setting [10]), 7.2 ± 2.8 µg/mL (≈ 29.5 µM); with ZIKV MR-766 [3] (setting [10]), 8.9 ± 7.9 µg/mL (≈ 36.4 µM); in the data set on ZIKV MR-766 [3] (setting [11]), 9.3 ± 5.2 µg/mL (≈ 38.1 µM). In the data set on ZIKV MR-766 [3] (setting [12]), the EC50 turned out to be 85 ± 77.9 µg/mL (≈ 348 µM). In addition, the “Activity in virus yield reduction assay” value in the data set on ZIKV (Vero76 cells (Figure 1A)) is given as “not active”; in the data set with ZIKV (human cell lines Huh-7 and RD (Figures 1B and C)), “confirmed the antiviral activity”. Also, in the data set with ZIKV (P 6-740) [4] (ribavirin i.p. bid 75 or 50 mg/kg/d), the “Viral RNA level in pooled serum on day 5 (qRT-PCR)” value is “did not improve viral RNA levels”. Besides, in the data set on ZIKV (P 6-740) [4] (ribavirin i.p. bid 75 or 50 mg/kg/d for 8 days), the “Outcome (survival)” value is “did not improve outcomes”. Also, the “Protection against weight loss” value with ZIKV (P 6-740) [4] (ribavirin i.p. bid 75 or 50 mg/kg/d, days 7 to 13) is given as “did not protect against weight loss”. Besides, the values for the selectivity ratio in the data set on ZIKV Malaysian P 6-740 (African green monkey) and in the data set with ZIKV Malaysian P 6-740 (human) were 1.6 and 24.5, respectively. In addition, the EC90 came out at 10.4 ± 0.8 µg/mL (≈ 42.6 µM) with ZIKV PRVABC-59 [9] (setting [14]); 46.3 ± 8.6 µg/mL (≈ 190 µM) in the data set on ZIKV PRVABC-59 [9] (RD, read-out: VYR assay EC90); 281 ± 108 µg/mL (≈ 1150 µM) with ZIKV PRVABC-59 [9] (setting [15]).
